Results: patent publication US7964624B1, “Inhibitors of serine proteases” (priority 2005, dated 2011)

What was measured:
[1] = molecular target: T1, full-length hepatitis C viral protein NS3•4A (Hepatitis C virus genotype 1a, UniProt P27958); assay: biochemical; set-up: species or system HCV sub-type strain 1a
T1 construct: hexa-histidine (N); made in house; host or cells: Sf9 insect cells (baculovirus, pVL1392)

[2] = molecular target: T2, HCV NS3 protease domain (Hepatitis C virus genotype 1b, UniProt Q9WMX2); assay: biochemical; conditions: Enzyme Assay 1 (HCV NS3 Protease Domain Peptide Cleavage Assay) activity, apparent Ki class
T2 construct: The first 181 amino acids of NS3 (residues 1027-1207 of the viral polyprotein); hexa-histidine (C); made in house; host or cells: E. coli BL21/DE3 pLysS

[3] = Enzyme Assay 2 (HCV NS3 Peptide Cleavage Assay) activity, apparent Ki class
[4] = Enzyme Assay 2, HCV NS3 Peptide Cleavage Assay, apparent Ki

Row | Structure (SMILES) | Ki [1, 3] [nM] | further results
1 | CCC[C@H](NC(=O)[C@@H]1C[C@]2(CC(c3cccc(Cl)c3)=NO2)CN1C(=O)[C@@H](NC(=O)OC1CCCCCC1)C(C)(C)C)C(=O)C(=O)NC1CC1 [Compound 706] | < 100 | –
2 | CCC[C@H](NC(=O)[C@@H]1C[C@@]2(CC(c3cccc4cccnc34)=NO2)CN1C(=O)[C@@H](NC(=O)CC1CCCCC1)C(C)(C)C)C(=O)C(=O)NC1CC1 [Compound 31] | 100 to 500 | –
3 | COc1cc(OC)c(C2=NO[C@]3(C2)CC(C(=O)N[C@@H](CC2CC2)C(=O)C(N)=O)N(C(=O)[C@@H](NC(=O)CC2CCCCCC2)C(C)(C)C)C3)cc1Cl (stereo partly shown) [Compound 59] | < 100 | –
4 | CCC[C@H](NC(=O)[C@@H]1C[C@]2(CC(c3cc(C)c(OC)cc3OC)=NO2)CN1C(=O)[C@@H](NC(=O)CC1CCCCC1)C(C)(C)C)C(=O)C(=O)NC1CC1 [Compound 614] | < 100 | –
5 | CCC[C@H](NC(=O)[C@@H]1C[C@]2(CC(c3cc(C)cc(Cl)c3)=NO2)CN1C(=O)[C@@H](NC(=O)CC1CCCCC1)C(C)(C)C)C(=O)C(=O)NC1CC1 [Compound 396] | < 100 | –
6 | CCC[C@H](NC(=O)[C@@H]1C[C@]2(CC(c3cc(Cl)c(OC)cc3OC)=NO2)CN1C(=O)[C@@H](NC(=O)CC(C)(C)C)C(C)(C)C)C(=O)C(=O)NC1CC1 [Compound 297] | < 100 | –
7 | CCC[C@H](NC(=O)[C@@H]1C[C@]2(CC(c3cc(Cl)ccc3OC)=NO2)CN1C(=O)[C@@H](NC(=O)[C@@H]1C[C@H]1c1ccccc1)C(C)(C)C)C(=O)C(=O)NC1CC1 [Compound 968] | – | Ki [1, 4]: < 100 nM
8 | CCC[C@H](NC(=O)[C@@H]1C[C@]2(CC(c3cc(C)c(OCC)c(C)c3)=NO2)CN1C(=O)[C@@H](NC(=O)[C@H]1C[C@@H]1c1ccccn1)C(C)(C)C)C(=O)C(=O)NC1CC1 [Compound 980] | – | Ki [1, 4]: 100 to 500 nM
9 | COc1c(C)cc(C2=NO[C@]3(C2)C[C@@H](C(=O)N[C@@H](CC2CC2)C(=O)C(N)=O)N(C(=O)[C@@H](NC(=O)CC2CCCCC2)C(C)(C)C)C3)cc1Cl [Compound 195] | < 100 | –
10 | CCC[C@H](NC(=O)[C@@H]1C[C@]2(CC(c3cc(Cl)c(OC)cc3OC)=NO2)CN1C(=O)[C@@H](NC(=O)OC(C)(C)C)C(C)(C)C)C(=O)C(=O)N1CCC1 [Compound 581] | < 100 | –
11 | CC(C)(C)[C@H](NC(=O)[C@@H]1C[C@H]1c1ccccc1)C(=O)N1C[C@@]2(CC(c3cccc(Cl)c3)=NO2)C[C@H]1C(=O)N[C@@H](CC1CC1)C(=O)C(N)=O [Compound 485] | < 100 | –
12 | CCC[C@H](NC(=O)[C@@H]1C[C@]2(CC(c3cccc(NC(=O)C(Cl)Cl)c3)=NO2)CN1C(=O)[C@@H](NC(=O)CC1CCCCC1)C(C)(C)C)C(=O)C(=O)NC1CC1 [Compound 598] | 100 to 500 | –
13 | CNC(=O)C(=O)[C@H](CC1CC1)NC(=O)[C@@H]1C[C@]2(CC(c3cccc(Cl)c3)=NO2)CN1C(=O)[C@@H](NC(=O)CC1CCCCC1)C(C)(C)C [Compound 522] | < 100 | –
14 | CCC[C@H](NC(=O)[C@@H]1C[C@]2(CC(c3cc(Cl)c(OC)cc3C)=NO2)CN1C(=O)[C@@H](NC(=O)OC(C)(C)C)C(C)(C)C)C(=O)C(N)=O [Compound 626] | < 100 | –
15 | CCC[C@H](NC(=O)[C@@H]1C[C@]2(CC(c3cccc4cccnc34)=NO2)CN1C(=O)[C@@H](NC(=O)CC1CCCCCC1)C(C)(C)C)C(=O)C(=O)NC [Compound 596] | 100 to 500 | –
16 | CCC[C@H](NC(=O)[C@@H]1C[C@]2(CC(c3cc(C)c(OC)c(Cl)c3)=NO2)CN1C(=O)[C@@H](NC(=O)OC(C)(C)C)C(C)(C)C)C(=O)C(=O)NC1CC1 [Compound 645] | < 100 | –
17 | CCC[C@H](NC(=O)[C@@H]1C[C@]2(CC(c3ccc(N(C)C)c(Cl)c3)=NO2)CN1C(=O)[C@@H](NC(=O)CC1CCCCC1)C(C)(C)C)C(=O)C(=O)NC1CC1 [Compound 597] | 100 to 500 | –
18 | CCC[C@H](NC(=O)[C@@H]1C[C@]2(CC(c3cccc(Cl)c3)=NO2)CN1C(=O)[C@@H](NC(=O)CC1CC2CCC1C2)C(C)(C)C)C(=O)C(N)=O (stereo partly shown) [Compound 779] | < 100 | –
19 | CCC[C@H](NC(=O)[C@@H]1C[C@]2(CC(c3cc(C)c(OCC)c(C)c3)=NO2)CN1C(=O)[C@@H](NC(=O)[C@@H]1C[C@H]1C1CCCCC1)C(C)(C)C)C(=O)C(=O)NC [Compound 993] | – | Ki [1, 4]: < 100 nM
20 | CCC[C@H](NC(=O)[C@@H]1C[C@]2(CC(c3cccc(Cl)c3)=NO2)CN1C(=O)[C@@H](NC(=O)[C@H]1CC12CCOCC2)C(C)(C)C)C(=O)C(=O)NC1CC1 [Compound 826] | – | Ki [1, 4]: < 100 nM
21 | CCC[C@H](NC(=O)[C@@H]1C[C@]2(CC(c3cccc4cccnc34)=NO2)CN1C(=O)[C@@H](NC(=O)OC1CCCC1)C(C)(C)C)C(=O)C(=O)NC1CC1 [Compound 648] | 100 to 500 | –
22 | CNC(=O)C(=O)[C@H](CC1CC1)NC(=O)[C@@H]1C[C@]2(CC(c3cccc(Cl)c3)=NO2)CN1C(=O)[C@@H](NC(=O)OC1CCC1)C(C)(C)C [Compound 851] | – | Ki [1, 4]: < 100 nM
23 | COc1cc(C)c(C2=NO[C@]3(C2)C[C@@H](C(=O)N[C@@H](CC2CC2)C(=O)C(=O)NC2CC2)N(C(=O)[C@@H](NC(=O)CC2CCCCC2)C(C)(C)C)C3)cc1Cl [Compound 709] | 100 to 500 | –

Row | Structure (SMILES) | Ki [1, 3] [nM] | further results
24 | CCC[C@H](NC(=O)[C@@H]1C[C@]2(CC(c3cc(Cl)nc4ccccc34)=NO2)CN1C(=O)[C@@H](NC(=O)OC1CCCC1)C(C)(C)C)C(=O)C(=O)NC1CC1 [Compound 639] | < 100 | –
25 | CCC[C@H](NC(=O)[C@@H]1C[C@]2(CC(c3cccc(Cl)c3)=NO2)CN1C(=O)[C@@H](NC(=O)[C@@H]1C[C@H]1C1CCCC1)C(C)(C)C)C(=O)C(=O)NC1CC1 [Compound 954] | – | Ki [1, 4]: < 100 nM
26 | CCC[C@H](NC(=O)[C@@H]1C[C@]2(CC(c3cc(Cl)c4c(c3)OCCO4)=NO2)CN1C(=O)[C@@H](NC(=O)CC1CCCCC1)C(C)(C)C)C(=O)C(=O)NC [Compound 674] | < 100 | –
27 | CCC[C@H](NC(=O)[C@@H]1C[C@]2(CC(c3ccc(F)c(Cl)c3)=NO2)CN1C(=O)[C@@H](NC(=O)OC1CCCC1)C(C)(C)C)C(=O)C(N)=O [Compound 654] | < 100 | –
28 | CCC[C@H](NC(=O)[C@@H]1C[C@]2(CC(c3cccc(Cl)c3)=NO2)CN1C(=O)[C@@H](NC(=O)[C@H]1C[C@@H]1C1CCCCC1)C(C)(C)C)C(=O)C(=O)NC [Compound 928] | – | Ki [1, 4]: 100 to 500 nM
29 | CCC[C@H](NC(=O)[C@@H]1C[C@]2(CC(c3cc(C)c(OCC)c(C)c3)=NO2)CN1C(=O)[C@@H](NC(=O)C1CC1c1ccncc1)C(C)(C)C)C(=O)C(=O)NC1CC1 (stereo partly shown) [Compound 982] | – | Ki [1, 4]: 100 to 500 nM
30 | CCC[C@H](NC(=O)[C@@H]1C[C@]2(CC(c3ccc(OCC)c(Cl)c3)=NO2)CN1C(=O)[C@@H](NC(=O)CC1CCCCC1)C(C)(C)C)C(=O)C(=O)NC1CC1 [Compound 556] | < 100 | –
31 | CCC[C@H](NC(=O)[C@@H]1C[C@]2(CC(c3cc(Cl)c(OC)cc3OC)=NO2)CN1C(=O)[C@@H](NC(=O)CC1CCCCC1)C(C)(C)C)C(=O)C(N)=O [Compound 618] | < 100 | –
32 | CC(C)(C)[C@H](NC(=O)[C@H]1C[C@@H]1c1ccccc1)C(=O)N1C[C@@]2(CC(c3cccc(Cl)c3)=NO2)C[C@H]1C(=O)N[C@@H](CC1CC1)C(=O)C(N)=O [Compound 699] | < 100 | –
33 | CCC[C@H](NC(=O)[C@@H]1C[C@]2(CC(c3cccc(Cl)c3)=NO2)CN1C(=O)[C@@H](NC(=O)C1(C#N)CC1)C(C)(C)C)C(=O)C(=O)NC1CC1 [Compound 823] | – | Ki [1, 4]: < 100 nM
34 | CCC[C@H](NC(=O)[C@@H]1C[C@]2(CC(c3cc(Cl)c(OC)cc3C)=NO2)CN1C(=O)[C@@H](NC(=O)CC(C)(C)C)C(C)(C)C)C(=O)C(N)=O [Compound 624] | 100 to 500 | –
35 | CCC[C@H](NC(=O)[C@@H]1C[C@]2(CC(c3cccc(Cl)c3)=NO2)CN1C(=O)[C@@H](NC(=O)OC1CCCC1)C(C)(C)C)C(=O)C(=O)NC1CC1 [Compound 369] | < 100 | –
36 | CCC[C@H](NC(=O)[C@@H]1C[C@]2(CC(c3cc(C)c(OCC)c(C)c3)=NO2)CN1C(=O)[C@@H](NC(=O)[C@@H]1C[C@H]1c1ccccc1OC)C(C)(C)C)C(=O)C(=O)NC [Compound 991] | – | Ki [1, 4]: < 100 nM
37 | COc1cc(OC)c(C2=NO[C@]3(C2)C[C@@H](C(=O)N[C@@H](CC2CC2)C(=O)C(N)=O)N(C(=O)[C@@H](NC(=O)CC2(C)CCOCC2)C(C)(C)C)C3)cc1Cl [Compound 529] | < 100 | –
38 | CNC(=O)C(=O)[C@H](CC1CC1)NC(=O)[C@@H]1C[C@]2(CC(c3cc(C)c(OC)c(C)c3)=NO2)CN1C(=O)[C@@H](NC(=O)[C@@H]1CC1c1ccccc1)C(C)(C)C (stereo partly shown) [Compound 798] | – | Ki [1, 4]: < 100 nM
39 | CNC(=O)C(=O)[C@H](CC1CC1)NC(=O)[C@@H]1C[C@]2(CC(c3cccc(Cl)c3)=NO2)CN1C(=O)[C@@H](NC(=O)[C@H]1C[C@H]1c1ccccc1)C(C)(C)C [Compound 887] | – | Ki [1, 4]: 100 to 500 nM
40 | CNC(=O)C(=O)[C@H](CC1CC1)NC(=O)[C@@H]1C[C@]2(CC(c3cc(Cl)c(OC)cc3C)=NO2)CN1C(=O)[C@@H](NC(=O)CC1CCCCC1)C(C)(C)C [Compound 662] | 100 to 500 | –
41 | CNC(=O)C(=O)[C@H](CC1CC1)NC(=O)[C@@H]1C[C@]2(CC(c3cc(C)c(OC)c(C)c3)=NO2)CN1C(=O)[C@@H](NC(=O)CC1CCCCC1)C(C)(C)OC [Compound 788] | < 100 | –
42 | CCC[C@H](NC(=O)[C@@H]1C[C@]2(CC(c3cccc(Cl)c3)=NO2)CN1C(=O)[C@@H](NC(=O)CC1CCCCC1)C(C)(C)C)C(=O)C(=O)NC1CC1 [Compound 294] | – | Ki [2]: 100 to 500 nM
43 | CCC[C@H](NC(=O)[C@@H]1C[C@]2(CC(C(=O)c3ccccc3)=NO2)CN1C(=O)[C@@H](NC(=O)O[C@H]1CCOC1)C(C)(C)C)C(=O)C(=O)NC1CC1 [Compound 535] | – | Ki [2]: 100 to 500 nM
44 | CCC[C@H](NC(=O)[C@@H]1C[C@]2(CC(c3cccc(Cl)c3)=NO2)CN1C(=O)CNC(=O)NCc1ccccc1)C(=O)C(=O)NC1CC1 [Compound 205] | – | Ki [2]: > 500 nM
45 | CCC[C@H](NC(=O)[C@@H]1C[C@]2(CC(c3cccc(Cl)c3)=NO2)CN1C(=O)Oc1ccc([N+](=O)[O-])cc1)C(=O)C(=O)NC1CC1 [Compound 262] | – | Ki [2]: > 500 nM
46 | CCC[C@H](NC(=O)[C@@H]1C[C@]2(CC(c3cccc(Cl)c3)=NO2)CN1C(=O)[C@@H](NC(=O)CC1CCOCC1)C(C)(C)C)C(=O)C(=O)NC1CC1 [Compound 92] | – | Ki [2]: 100 to 500 nM
